Data taken from the supplement of paper PMC11061612.

Assays:
Trametinib = compound: CC(=O)Nc1cccc(-n2c(=O)n(C3CC3)c(=O)c3c(Nc4ccc(I)cc4F)n(C)c(=O)c(C)c32)c1 [Trametinib]; conditions: max 1 µM
Summary of the method: (§1)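 After 24 hours at 37°C and 5% CO2 in 1536-well plates holding 7.5 μl of DMEM/F12 or RPMI with 10% FBS, cancer cell lines were dosed for 72 hours, with final DMSO typically 0.2%. Viability came from CellTiter-Glo 2.0 luminescence, scaled between the means of blank wells and DMSO wells. A non-linear mixed effects model fitted a two-parameter logistic curve to each dose response to give the single-agent IC50.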

MK-2206 = compound: NC1(c2ccc(-c3nc4ccn5c(=O)[nH]nc5c4cc3-c3ccccc3)cc2)CCC1 [MK-2206]; conditions: max 10 µM
Summary of the method: as §1

AZD7648 = compound: Cc1cc2ncnn2cc1Nc1ncc2c(n1)n(C1CCOCC1)c(=O)n2C [AZD7648]; conditions: max 10 µM
Summary of the method: as §1

[1] = compound: O=C(Nc1ccc2[nH]nc(-c3ccncc3)c2c1)[C@@H]1CCN(CC(=O)N2CCN(c3ccc(-c4ncccn4)cc3)CC2)C1; conditions: max 5 µM
Summary of the method: as §1

AZD5363 = compound: C1CN(CCC1(C(=O)N[C@@H](CCO)C2=CC=C(C=C2)Cl)N)C3=NC=NC4=C3C=CN4 [AZD5363]; conditions: max 10 µM
Summary of the method: as §1

AZD6738 = compound: C[C@@H]1COCCN1C2=NC(=NC(=C2)C3(CC3)[S@](=N)(=O)C)C4=C5C=CNC5=NC=C4 [AZD6738]; conditions: max 10 µM
Summary of the method: as §1

Crizotinib = compound: C[C@@H](Oc1cc(-c2cnn(C3CCNCC3)c2)cnc1N)c1c(Cl)ccc(F)c1Cl [Crizotinib]; conditions: max 10 µM
Summary of the method: as §1

AZD5991 = compound: Cc1c2c(nn1C)CSCc1cc(n(C)n1)CSc1cc(c3ccccc3c1)OCCCc1c(C(=O)O)n(C)c3c-2c(Cl)ccc13 [AZD5991]; conditions: max 1 µM
Summary of the method: as §1

Taselisib = compound: Cc1nc(-c2cn3c(n2)-c2ccc(-c4cnn(C(C)(C)C(N)=O)c4)cc2OCC3)n(C(C)C)n1 [Taselisib]; conditions: max 10 µM
Summary of the method: as §1

Lapatinib = compound: CS(=O)(=O)CCNCc1ccc(-c2ccc3ncnc(Nc4ccc(OCc5cccc(F)c5)c(Cl)c4)c3c2)o1 [Lapatinib]; conditions: max 10 µM
Summary of the method: as §1

SG3199 = compound: CC1=CN2[C@@H](C1)C=NC3=CC(=C(C=C3C2=O)OC)OCCCCCOC4=C(C=C5C(=C4)N=C[C@@H]6CC(=CN6C5=O)C)OC [SG3199]; conditions: max 0.001 µM
Summary of the method: as §1

5-Fluorouracil = compound: O=c1[nH]cc(F)c(=O)[nH]1 [5-Fluorouracil]; conditions: max 20 µM
Summary of the method: as §1

AZD0156 = compound: CN(C)CCCOc1ccc(-c2ccc3ncc4c(c3c2)n(C2CCOCC2)c(=O)n4C)cn1 [AZD0156]; conditions: max 3 µM
Summary of the method: as §1

Olaparib = compound: O=C(c1cc(Cc2n[nH]c(=O)c3ccccc23)ccc1F)N1CCN(C(=O)C2CC2)CC1 [Olaparib]; conditions: max 10 µM
Summary of the method: as §1

Savolitinib = compound: C[C@@H](c1ccc2nccn2c1)n1nnc2ncc(-c3cnn(C)c3)nc21 [Savolitinib]; conditions: max 1 µM
Summary of the method: as §1

Palbociclib = compound: CC(=O)c1c(C)c2cnc(Nc3ccc(N4CCNCC4)cn3)nc2n(C2CCCC2)c1=O [Palbociclib]; conditions: max 10 µM
Summary of the method: as §1

AZD1775 = compound: C=CCn1c(=O)c2cnc(Nc3ccc(N4CCN(C)CC4)cc3)nc2n1-c1cccc(C(C)(C)O)n1 [AZD1775]; conditions: max 3 µM
Summary of the method: as §1

AZD2811 = compound: CCN(CCO)CCCOc1ccc2c(Nc3cc(CC(=O)Nc4cccc(F)c4)[nH]n3)ncnc2c1 [AZD2811]; conditions: max 1 µM
Summary of the method: as §1

Selumetinib = compound: Cn1cnc2c(F)c(Nc3ccc(Br)cc3Cl)c(C(=O)NOCCO)cc21 [Selumetinib]; conditions: max 10 µM
Summary of the method: as §1

Carboplatin = compound: C1CC(C1)(C(=O)[O-])C(=O)[O-].N.N.[Pt+2] [Carboplatin]; conditions: max 10 µM
Summary of the method: as §1

Dasatinib = compound: CC1=C(C(=CC=C1)Cl)NC(=O)C2=CN=C(S2)NC3=CC(=NC(=N3)C)N4CCN(CC4)CCO [Dasatinib]; conditions: max 2 µM
Summary of the method: as §1

AZD4320 = compound: CN(CC[C@H](CSC1=CC=CC=C1)NC2=C(C=C(C=C2)S(=O)(=O)NC(=O)C3=CC=C(C=C3)N4CCC(CC4)[C@H](C5=CC=CC=C5C6=CC=C(C=C6)Cl)O)S(=O)(=O)C(F)(F)F)CCO [AZD4320]; conditions: max 1 µM
Summary of the method: as §1

Prexasertib = compound: COc1cccc(OCCCN)c1-c1cc(Nc2cnc(C#N)cn2)n[nH]1 [Prexasertib]; conditions: max 1 µM
Summary of the method: as §1

SN-38 = compound: CCc1c2c(nc3ccc(O)cc13)-c1cc3c(c(=O)n1C2)COC(=O)[C@]3(O)CC [SN-38]; conditions: max 0.3 µM
Summary of the method: as §1

Gefitinib = compound: COc1cc2ncnc(Nc3ccc(F)c(Cl)c3)c2cc1OCCCN1CCOCC1 [Gefitinib]; conditions: max 10 µM
Summary of the method: as §1

Etoposide = compound: COc1cc([C@@H]2c3cc4c(cc3[C@@H](O[C@@H]3O[C@@H]5CO[C@@H](C)O[C@H]5[C@H](O)[C@H]3O)[C@H]3COC(=O)[C@H]23)OCO4)cc(OC)c1O [Etoposide]; conditions: max 10 µM
Summary of the method: as §1

Doxorubicin = compound: COc1cccc2c1C(=O)c1c(O)c3c(c(O)c1C2=O)C[C@@](O)(C(=O)CO)C[C@@H]3O[C@H]1C[C@H](N)[C@H](O)[C@H](C)O1 [Doxorubicin]; conditions: max 1 µM
Summary of the method: as §1

Venetoclax = compound: CC1(C)CCC(CN2CCN(c3ccc(C(=O)NS(=O)(=O)c4ccc(NCC5CCOCC5)c([N+](=O)[O-])c4)c(Oc4cnc5[nH]ccc5c4)c3)CC2)=C(c2ccc(Cl)cc2)C1 [Venetoclax]; conditions: max 1 µM
Summary of the method: as §1

AZD5153 = compound: COc1nnc2ccc(N3CCC(c4ccc(OCCN5CCN(C)C(=O)[C@H]5C)cc4)CC3)nn12 [AZD5153]; conditions: max 1 µM
Summary of the method: as §1

SRA737 = compound: N#Cc1cnc(Nc2cc(NC[C@H]3CNCCO3)c(C(F)(F)F)cn2)cn1 [SRA737]; conditions: max 10 µM
Summary of the method: as §1

Gemcitabine = compound: Nc1ccn([C@@H]2O[C@H](CO)[C@@H](O)C2(F)F)c(=O)n1 [Gemcitabine]; conditions: max 0.3 µM
Summary of the method: as §1

AZD1390 = compound: CC(C)n1c(=O)n(C)c2cnc3cc(F)c(-c4ccc(OCCCN5CCCCC5)nc4)cc3c21 [AZD1390]; conditions: max 0.3 µM
Summary of the method: as §1

AZD8186 = compound: C[C@@H](Nc1cc(F)cc(F)c1)c1cc(C(=O)N(C)C)cc2c(=O)cc(N3CCOCC3)oc12 [AZD8186]; conditions: max 10 µM
Summary of the method: as §1

Alisertib = compound: COc1cc(Nc2ncc3c(n2)-c2ccc(Cl)cc2C(c2c(F)cccc2OC)=NC3)ccc1C(=O)O [Alisertib]; conditions: max 10 µM
Summary of the method: as §1

Paclitaxel = compound: CC(=O)O[C@H]1C(=O)[C@@]2(C)[C@H]([C@H](OC(=O)c3ccccc3)[C@]3(O)C[C@H](OC(=O)[C@H](O)[C@@H](NC(=O)c4ccccc4)c4ccccc4)C(C)=C1C3(C)C)[C@]1(OC(C)=O)CO[C@@H]1C[C@@H]2O [Paclitaxel]; conditions: max 3 µM
Summary of the method: as §1

Cell Line | IC50, cell viability 72 h (Trametinib) [µM] | IC50, cell viability 72 h (MK-2206) [µM] | IC50, cell viability 72 h (AZD7648) [µM] | IC50, cell viability 72 h [1] [µM] | IC50, cell viability 72 h (AZD5363) [µM] | IC50, cell viability 72 h (AZD6738) [µM] | IC50, cell viability 72 h (Crizotinib) [µM] | IC50, cell viability 72 h (AZD5991) [µM] | IC50, cell viability 72 h (Taselisib) [µM] | IC50, cell viability 72 h (Lapatinib) [µM] | IC50, cell viability 72 h (SG3199) [µM] | IC50, cell viability 72 h (5-Fluorouracil) [µM] | IC50, cell viability 72 h (AZD0156) [µM] | IC50, cell viability 72 h (Olaparib) [µM] | IC50, cell viability 72 h (Savolitinib) [µM] | IC50, cell viability 72 h (Palbociclib) [µM] | IC50, cell viability 72 h (AZD1775) [µM] | IC50, cell viability 72 h (AZD2811) [µM] | IC50, cell viability 72 h (Selumetinib) [µM] | IC50, cell viability 72 h (Carboplatin) [µM] | IC50, cell viability 72 h (Dasatinib) [µM] | IC50, cell viability 72 h (AZD4320) [µM] | IC50, cell viability 72 h (Prexasertib) [µM] | IC50, cell viability 72 h (SN-38) [µM] | IC50, cell viability 72 h (Gefitinib) [µM] | IC50, cell viability 72 h (Etoposide) [µM] | IC50, cell viability 72 h (Doxorubicin) [µM] | IC50, cell viability 72 h (Venetoclax) [µM] | IC50, cell viability 72 h (AZD5153) [µM] | IC50, cell viability 72 h (SRA737) [µM] | IC50, cell viability 72 h (Gemcitabine) [µM] | IC50, cell viability 72 h (AZD1390) [µM] | IC50, cell viability 72 h (AZD8186) [µM] | IC50, cell viability 72 h (Alisertib) [µM] | IC50, cell viability 72 h (Paclitaxel) [µM]
CPC-N (Small Cell Lung Carcinoma) | > 1 | > 10 | > 10 | > 5 | > 10 | 2.13 | 6.99 | > 1 | 8.22 | > 10 | > 0.001 | > 20 | > 3 | > 10 | > 1 | > 10 | 0.297 | 0.0598 | > 10 | > 10 | > 2 | 0.178 | 0.00403 | > 0.3 | > 10 | 5.13 | 0.887 | 0.721 | 0.774 | 1.76 | 0.144 | > 0.3 | > 10 | 0.67 | 0.0211
RCC-JW (Kidney Carcinoma) | > 1 | > 10 | > 10 | > 5 | > 10 | > 10 | > 10 | > 1 | > 10 | 7.53 | > 0.001 | > 20 | > 3 | > 10 | > 1 | > 10 | 1.6 | > 1 | > 10 | > 10 | 0.0851 | 0.895 | > 1 | 0.157 | > 10 | > 10 | > 1 | > 1 | > 1 | > 10 | 0.0617 | > 0.3 | 5.13 | > 10 | 0.109
